Laboratory results taken from patent US9676760B2, “Fused heterocyclic compounds as ion channel modulators” (Gilead Sciences, Inc., priority 2011, dated 2017).

Biological target: wild-type human cardiac sodium channel, hNav1.5 (Homo sapiens, UniProt Q14524)
Assay: Late INa screening assay (QPatch whole cell patch clamp, HEK293)
Format: cell-based
Conditions: for inhibition at 1 µM: HEK293, percent block of late INa, compound at 1 μM, 10 μM Tefluthrin, read-out: Late INa 1 μM
Protocol: The late sodium current (Late INa) and peak sodium current (Peak INa) assays are performed on an automated electrophysiology platform, QPatch 16× (Sophion Bioscience, Copenhagen, Denmark), which uses the whole cell patch clamp technique to measure currents through the cell membrane of up to 16 cells at a time. The assay uses an HEK293 (human embryonic kidney) cell line heterologously expressing the wild-type human cardiac sodium channel, hNav1.5, purchased from Millipore (Billerica, Mass.). No beta subunits were coexpressed with the Na channel alpha subunit. Cells are maintained with standard tissue culture procedures and stable channel expression is maintained with 400 μg/mL Geneticin in the culture medium. Cells isolated for use on QPatch are incubated for 5 minutes in Detachin 1×(Genlantis, San Diego, USA) at 37° C. to ensure that 80-90% of the cells are single and not part of a cell cluster. Experiments are carried out at 23-25° C.
For both the Late INa and Peak INa assays, series resistance compensation is set to 100% and series resistance and whole-cell compensation are performed automatically. Currents are digitized at 25 kHz and low-pass filtered at 12 kHz and 10 kHz for the late and peak INa assays, respectively. Currents through open sodium channels are automatically recorded and stored in the Sophion Bioscience Oracle database (Sophion Bioscience, Copenhagen, Denmark). Analysis is performed using QPatch Assay and database software and data are compiled in Excel.
Compound stocks are routinely made by the Gilead Sample Bank in plastic vials to 10 mM in dimethyl sulfoxide (DMSO). In some cases, when compounds are not soluble in DMSO, they are made in 100% ethanol. Stocks are sonicated as necessary. The extracellular solution for screening Late INa is composed of: 140 mM NaCl, 4 mM KCl, 1.8 mM CaCl2, 0.75 mM MgCl2 and 5 mM HEPES with pH adjusted to 7.4 using NaOH. The intracellular solution used to perfuse the inside of the cells for both the Late INa and Peak INa assays contains: 120 mM CsF, 20 mM CsCl, 5 mM EGTA, 5 mM HEPES and pH adjusted to 7.4 with CsOH. Compounds are diluted in extracellular solution to 1 μM in glass vials and then transferred to glass well plates before robotic addition to the cells. The 0 mM Na extracellular solution (0Na-ECF) used at the end of each experiment for the Late INa and Peak INa assays to measure baseline current contains: 140 mM N-methyl-D-glucamine; 4 mM KCl; 1.8 mM CaCl2; 0.75 mM MgCl2; 5 mM HEPES and pH was adjusted to 7.4 with HCl.
For the Late INa assay, sodium channels are activated every 10 seconds (0.1 Hz) by depolarizing the cell membrane to −20 mV for 250 milliseconds (ms) from a holding potential of −120 mV. In response to a −20 mV voltage step, typical hNav1.5 sodium currents activate rapidly to a peak negative current and then inactivate nearly completely within 3-4 ms.
Compounds were tested to determine their activity in blocking the late sodium current. Late INa was generated by adding 10 μM Tefluthrin (pyrethroid) to the extracellular solution while recording Na currents. […] ATX-II and tefluthrin occupy distinct, non-overlapping binding sites and modify Na^+ channel function differently to increase late INa. […] After establishing the whole cell recording configuration, late INa activator is added to each well 4 times over a 16-17 minute period so that the late component of the Na current reaches a stable value.
Results are reported as percent block of late INa.

Sequence of wild-type human cardiac sodium channel, hNav1.5 (Q14524 whole entry): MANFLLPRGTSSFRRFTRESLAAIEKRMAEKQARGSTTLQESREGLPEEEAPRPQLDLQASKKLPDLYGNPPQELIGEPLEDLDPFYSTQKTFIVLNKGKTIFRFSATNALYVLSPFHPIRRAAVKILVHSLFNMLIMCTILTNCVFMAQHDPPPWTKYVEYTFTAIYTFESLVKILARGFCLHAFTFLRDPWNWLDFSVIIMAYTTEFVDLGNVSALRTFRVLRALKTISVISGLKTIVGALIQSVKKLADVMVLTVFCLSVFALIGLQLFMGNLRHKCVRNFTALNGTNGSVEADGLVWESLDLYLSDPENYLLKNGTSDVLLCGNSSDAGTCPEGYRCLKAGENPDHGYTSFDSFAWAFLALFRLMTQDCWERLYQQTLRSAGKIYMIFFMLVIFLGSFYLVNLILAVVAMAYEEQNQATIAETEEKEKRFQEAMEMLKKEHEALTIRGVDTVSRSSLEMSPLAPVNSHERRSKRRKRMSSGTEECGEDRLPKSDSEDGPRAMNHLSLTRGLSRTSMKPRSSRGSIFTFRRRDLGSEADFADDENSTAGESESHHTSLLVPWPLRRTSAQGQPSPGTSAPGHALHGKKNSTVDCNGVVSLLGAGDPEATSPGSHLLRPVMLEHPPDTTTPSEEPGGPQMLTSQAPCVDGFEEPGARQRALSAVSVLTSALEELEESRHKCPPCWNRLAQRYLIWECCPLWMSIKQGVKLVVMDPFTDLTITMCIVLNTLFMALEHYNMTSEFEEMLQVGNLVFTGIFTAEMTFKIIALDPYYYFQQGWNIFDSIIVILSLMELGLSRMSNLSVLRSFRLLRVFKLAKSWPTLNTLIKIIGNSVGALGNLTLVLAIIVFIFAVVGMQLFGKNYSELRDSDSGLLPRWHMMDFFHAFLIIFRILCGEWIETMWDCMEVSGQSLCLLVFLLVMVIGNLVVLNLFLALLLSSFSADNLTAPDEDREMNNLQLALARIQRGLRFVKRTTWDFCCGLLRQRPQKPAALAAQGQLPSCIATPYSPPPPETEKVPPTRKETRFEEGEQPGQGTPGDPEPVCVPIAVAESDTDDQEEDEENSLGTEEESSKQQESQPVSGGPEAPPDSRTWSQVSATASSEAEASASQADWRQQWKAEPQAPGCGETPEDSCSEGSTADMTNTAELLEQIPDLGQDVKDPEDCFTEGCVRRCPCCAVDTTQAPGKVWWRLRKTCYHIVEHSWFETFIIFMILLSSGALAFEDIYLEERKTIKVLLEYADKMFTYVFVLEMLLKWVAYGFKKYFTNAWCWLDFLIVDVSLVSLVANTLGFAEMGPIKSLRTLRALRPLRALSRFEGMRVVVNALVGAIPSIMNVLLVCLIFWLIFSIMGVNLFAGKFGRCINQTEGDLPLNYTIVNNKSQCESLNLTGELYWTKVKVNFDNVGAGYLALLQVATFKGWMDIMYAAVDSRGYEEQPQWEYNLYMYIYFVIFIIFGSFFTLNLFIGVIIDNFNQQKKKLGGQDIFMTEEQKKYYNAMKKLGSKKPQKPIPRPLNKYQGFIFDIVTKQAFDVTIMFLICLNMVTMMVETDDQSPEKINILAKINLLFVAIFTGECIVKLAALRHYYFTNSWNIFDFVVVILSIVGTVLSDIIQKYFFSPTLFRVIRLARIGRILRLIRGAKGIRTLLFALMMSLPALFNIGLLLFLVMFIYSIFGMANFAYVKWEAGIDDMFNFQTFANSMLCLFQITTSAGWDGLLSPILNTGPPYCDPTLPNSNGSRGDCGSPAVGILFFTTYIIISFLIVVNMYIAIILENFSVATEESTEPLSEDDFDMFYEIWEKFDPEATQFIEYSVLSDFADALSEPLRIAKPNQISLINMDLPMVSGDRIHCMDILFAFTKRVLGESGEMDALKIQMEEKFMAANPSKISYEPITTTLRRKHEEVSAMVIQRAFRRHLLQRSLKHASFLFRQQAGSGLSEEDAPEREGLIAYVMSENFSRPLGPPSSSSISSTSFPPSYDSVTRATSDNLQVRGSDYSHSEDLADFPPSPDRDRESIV

| Compound | inhibited (or reduced) the late sodium current (10 μM Tefluthrin activating late INa) [%] | inhibition at 1 µM [%] |
| --- | --- | --- |
| O=C1c2cc(-c3ccc(C(F)(F)F)cc3F)ccc2OCCN1Cc1ncccn1 [Compound 11-105] | 45 | – |
| CC(C)(C)C1CC=C(c2ccc3c(c2)C(=O)N(Cc2ncccn2)CCO3)CC1 (stereo not drawn) [Compound V-1, 7-(4-tert-butylcyclohex-1-enyl)-4-(pyrimidin-2-ylmethyl)-3,4-dihydrobenzo[f][1,4]oxazepin-5(2H)-one] | – | 24 |
| O=C1c2cc(C3=CCCCC3)ccc2OCCN1Cc1ncccn1 [Compound V-3, 7-cyclohexenyl-4-(pyrimidin-2-ylmethyl)-3,4-dihydrobenzo[f][1,4]oxazepin-5(2H)-one] | – | 23 |
| O=C1c2cc(-c3ccc(C(F)(F)F)cc3)ccc2-n2ccnc2CN1Cc1ccccc1 [Compound X-12, 5-benzyl-8-(4-(trifluoromethyl)phenyl)-4H-benzo[f]imidazo[1,2-a][1,4]diazepin-6(5H)-one] | – | 26 |
| CC1(CN2CCOc3ccc(-c4ccc(OC(F)(F)F)cc4)cc3C2=O)COC1 [II-1, 4-((3-methyloxetan-3-yl)methyl)-7-(4-(trifluoromethoxy)phenyl)-3,4-dihydrobenzo[f][1,4]oxazepin-5(2H)-one] | – | 25 |
| O=C1c2cc(-c3ccc(OC(F)(F)F)cc3)ccc2OCCN1CCN1CCCC1 [II-3, 4-(2-(pyrrolidin-1-yl)ethyl)-7-(4-(trifluoromethoxy)phenyl)-3,4-dihydrobenzo[f][1,4]oxazepin-5(2H)-one] | – | 15 |
| O=C1c2cc(-c3ccc(OC(F)(F)F)cc3)ccc2OCCN1Cc1nnc(C2CCC2)o1 [II-4, 4-((5-cyclobutyl-1,3,4-oxadiazol-2-yl)methyl)-7-(4-(trifluoromethoxy)phenyl)-3,4-dihydrobenzo[f][1,4]oxazepin-5(2H)-one] | – | 30 |
| O=C1c2cc(-c3ccc(OC(F)(F)F)cc3)ccc2OCCN1Cc1ccc2c(c1)OCCO2 [II-5, 4-((2,3-dihydrobenzo[b][1,4]dioxin-6-yl)methyl)-7-(4-(trifluoromethoxy)phenyl)-3,4-dihydrobenzo[f][1,4]oxazepin-5(2H)-one] | – | 26 |
| O=C1c2cc(-c3ccc(OC(F)(F)F)cc3)ccc2OCCN1CC(F)F [II-6, 4-(2,2-difluoroethyl)-7-(4-(trifluoromethoxy)phenyl)-3,4-dihydrobenzo[f][1,4]oxazepin-5(2H)-one] | – | 16 |
| O=C1c2cc(-c3ccc(C(F)(F)F)cc3)ccc2OC[C@H]2CN(Cc3ncccn3)CCN12 [II-8, (R)-2-(pyrimidin-2-ylmethyl)-8-(4-(trifluoromethyl)phenyl)-3,4,12,12a-tetrahydro-1H-benzo[f]pyrazino[2,1-c][1,4]oxazepin-6(2H)-one] | – | 21 |
| COCCN1CCOc2ccc(-c3ccc(OC(F)(F)F)cc3)cc2C1=O [II-11, 4-(2-methoxyethyl)-7-(4-(trifluoromethoxy)phenyl)-3,4-dihydrobenzo[f][1,4]oxazepin-5(2H)-one] | – | 23 |
| C[C@H]1COc2ccc(-c3ccc(C(F)(F)F)cc3)cc2C(=O)N1Cc1ncccn1 [II-12, (S)-3-methyl-4-(pyrimidin-2-ylmethyl)-7-(4-(trifluoromethyl)phenyl)-3,4-dihydrobenzo[f][1,4]oxazepin-5(2H)-one] | – | 21 |
| C[C@@H]1COc2ccc(-c3ccc(C(F)(F)F)cc3)cc2C(=O)N1Cc1ncccn1 [II-13, (R)-3-methyl-4-(pyrimidin-2-ylmethyl)-7-(4-(trifluoromethyl)phenyl)-3,4-dihydrobenzo[f][1,4]oxazepin-5(2H)-one] | – | 18 |
| O=C1c2cc(-c3ccc(OC(F)(F)F)cc3)ccc2OCCN1Cc1ccc(C(F)(F)F)nc1 [II-16, 7-(4-(trifluoromethoxy)phenyl)-4-((6-(trifluoromethyl)pyridin-3-yl)methyl)-3,4-dihydrobenzo[f][1,4]oxazepin-5(2H)-one] | – | 19 |
| C[C@@H]1COc2ccc(-c3ccc(C(F)(F)F)cc3)cc2C(=O)N1 [II-19, (R)-3-methyl-7-(4-(trifluoromethyl)phenyl)-3,4-dihydrobenzo[f][1,4]oxazepin-5(2H)-one] | – | 21 |
